melting point: 142 to 143 °C
Structure (SMILES): CC(C)(C)OC(=O)NN(C[C@H](O)[C@H](Cc1ccccc1)NC(=O)OCc1ccccc1)C1CCCCC1 [Example 31, t-Butyl 3-cyclohexyl-3-[(2S, 3S)-2-hydroxy-3-(phenylmethoxycarbonyl)amino-4-phenylbutyl]carbazate]

Source: US20040266871A1, “Methods for treating alzheimer's disease using quinaldoyl-amine derivatives of oxo-and hydroxy-substituted hydrocarbons” (priority 2001, published 2004)
